# Source: patent US20170107254A1, “Modified Antimicrobial Peptides” (priority 2014, published 2017)
# Read-outs that look alike come from different tables or passages of the source. No end group written: not given here.
# What was measured:
# [1] = test system: A. fumigatus (AM2002/066 and NPCF2939); test: Antifungal activity (CLSI M38-A2 micro-broth dilution) and MFC; format: cell-based; conditions: for A. fumigatus MIC100 / MIC: Table 5, average of two strains, 48 h at 30° C.; for MIC: read-out: A. fumigatus MIC100
# Description: (§1) The fungal strains A. fumigatus (AM2002/066 and NPCF2939), A. flavus (01-1554 and NPCF7117) and A. niger (01-1494 and NCPF2022) were obtained from the National Collection of Pathogenic Fungi (NPCF) or American Type Culture Collection (ATCC). Fungal strains were grown on SAB slopes for 72 h at 30° C. before experimental use. C. albicans strain SC5314 was purchased from ATCC and grown overnight on SAB slopes at 30° C. before experimental use.
# (§2) The antifungal activity of peptides was examined using the conditions of the Clinical Laboratory Standards Institute document M38-A2. Peptide antifungal activity was assessed by micro-broth dilutions with a serial two-fold dilution of test compound prepared in a 96 well plate from 0 to maximum concentration to be tested (here 2× concentration required, 250 μg/ml). Fungal suspensions were prepared by flooding slopes with PBS and filtering through gauze to collect spores. The suspension was then adjusted to a density of 2×10^4 colony-forming units/ml in 2× culture medium (RPMI 1640, 0.165 M MOPS, pH 7.4 with L-glutamine, without NaHCO3 medium) and an equal volume was added to the different peptide concentrations in the 96 well plate. Plates where incubated at 30° C. for 48 h before growth inhibition was determined by measuring absorbance at 530 nm (Biotek Powerwave). Antifungal activity was defined by the minimum inhibitory concentration (MIC), the concentration at which no growth was observed.
# (§3) For examining the minimum fungicidal concentration (MFC) 10 μl of fungal and peptide suspension was transferred from every well to the corresponding well in a sterile 96-well plate containing fresh culture medium (RPMI-1640, 0.165 M MOPS, pH 7.4 with L-glutamine, without NaHCO3 medium). Aspergillus was then incubated for a further 48 h after which absorbance was measured at 530 nm. MFC was defined as the concentration at which no growth was observed.
# A549 cells = conditions: lipid alone at 200 μg/ml
# Description: The cell lines A549 (Human Lung Adenocarcinoma Epithelial Cell Line) and HepG2 (Human Hepatocellular Carcinoma Cell Line) were purchased from ATCC. A549 cells were maintained in F-12K medium (Gibco) containing 10% foetal bovine serum (Life Technologies) and 1% penicillin/streptomycin (Life Technologies) and HepG2 cells were maintained in Dulbecco's modified eagles medium (Gibco) containing 10% foetal bovine serum (Life Technologies), penicillin/streptomycin (Life Technologies) and 1% 0.01 mg/ml human transferrin (Sigma). Both were incubated at 37° C. with 5% CO2 until cells reached >80% confluence before splitting or experimental use.
# Before exposure to peptides, the plate was incubated at 37° C. with 5% CO2 overnight to allow cells adhere. […] Medium was removed from the plate containing cells and peptide dilutions were transferred to cells and incubated for a further 3 h at 37° C. with 5% CO2. Cytotoxicity was determined by LIVE/DEAD® Viability/Cytotoxicity kit (Invitrogen Life Technologies), a working solution of 2 μM calcein AM and 4 μM EthD-1 and in conjunction Alamar Blue at a final concentration of 10% was added to the wells. Cells without peptides were the negative control and 1% DMSO was the positive control. Cells were incubated for 3 h again at 37° C. with 5% CO2.
# [2] = test system: human red blood cells (hRBC); test: Haemolysis of human red blood cells; conditions: lipid alone at 200 μg/ml
# Description: Peptides were tested for their haemolytic activity against human red blood cells (hRBC). Fresh hRBCs collected in BD Vacutainer® tubes with EDTA were rinsed 3 times with PBS (pH 7.4) by centrifugation for 10 min at 800 g and resuspended, 1 in 10 diluted with PBS. […] Release of haemoglobin was then calculated by transferring supernatant to a flat bottomed 96-well plate and measuring absorbance at 578 nm. hRBCs with no peptides added and H2O provided the controls.
# [3] = test system: A. flavus (01-1554 and NPCF7117); test: Antifungal activity (CLSI M38-A2 micro-broth dilution) and MFC; format: cell-based; conditions: Table 5, average of two strains, 48 h at 30° C.; for MIC: Aspergillus flavus, read-out: A. flavus MIC100
# Description: as §1, §2, §3
# [4] = test system: A. niger (01-1494 and NCPF2022); test: as above; format: cell-based; conditions: Table 5, average of two strains, 48 h at 30° C.; for MIC: Aspergillus niger, NCPF2022, read-out: A. niger MIC100
# Description: as §1, §2, §3
# C. albicans SC5314 [5] = test system: C. albicans SC5314
# Description: (B) Efficacy of AMPs of same length was evaluated by MIC after 24 incubation at 37° C. Data is expressed as percentage of the positive growth controls. Data is the mean±standard error of the mean (n=3).
# The efficacy of AMPs was determined versus C. albicans SC5314 before evaluating the effect of pH on activity.
# C. albicans SC5314 [6] = format: cell-based; conditions: RPMI-1640, 48 h data
# Description: The purity of the peptide was taken into account during the preparation to ensure preparation of the correct concentration. Peptides solutions were stored at −20° C. until required.
# The antifungal activity of the peptides was based on that of the Clinical Laboratory Standards Institute document M27-A3. A serial two-fold dilution of peptide was prepared across a 96-well microtitre plate with concentration ranging from 2 mg/ml to […]; upon addition of the cells these concentrations shall be halved, with additional wells lacking peptide as a 0 mg/ml control. An addition control lacking culture was also prepared.
# To prepare the fungal inoculum, an overnight culture of C. albicans SC5314 was grown at 30° C. on Sabouraud dextrose agar. Cells were washed from the surface of the agar and diluted to the equivalent of the 0.5 MacFarland standard. A further 1:50 dilution of the cells into 2×RPMI-1640 was carried out, and an equal volume was added to the different peptide concentrations in the microtitre plate. To measure the metabolic activity of the cells, 10 μl of a 0.25% solution of resazurin was added to each well. Plates were incubated in the dark at 30° C. for 48 h with growth inhibition determined by measuring absorbance at 530 nm/590 nm at 0 h, 24 h and 48 h on a BioTek PoweWave. Antifungal activity was defined by the minimum inhibitory concentration (MIC), the concentration at which no growth was observed.
# C. albicans SC5314 [7] = format: cell-based; conditions: RPMI-1640 and 25% plasma, 24 h data
# Description: A peptide “master” plate was prepared by the addition of 200 μl of the 20 mg/ml stock to column 11 on a microtitre plate. One hundred microliters of sterile water was added to the remaining wells. Serial two-fold dilutions of the peptides were carried out across the plate from right to left. From the “master” plate, 25 μl of peptides were added to corresponding wells on three “working” plates. To each well on the “working” plate, 25 μl human plasma was added, resulting in the halving of both the concentration of the peptide in the working plate and human plasma. Column 12 contained the controls.
# An overnight culture of C. albicans SC5314 was grown at 30° C. on Sabouraud dextrose agar and the cells were washed from the surface of the agar and diluted to the equivalent of the 0.5 MacFarland standard. A further 1:50 dilution of the cells into 2×RPMI-1640 was carried out, and 50 μl of the cell suspension was added to each well of the plate. […] Plates were incubated at 30° C. for 48 h with growth inhibition determined by measuring absorbance at 530 nm at 0 h, 24 h and 48 h on a BioTek PoweWave. Antifungal activity was defined by the minimum inhibitory concentration (MIC), the concentration at which no growth was observed.
# C. albicans SC5314 [8] = format: cell-based
# Description: 1×RPMI-1640 Buffered with Citrate Phosphate Buffer
# Citrate phosphate buffer was prepared by mixing 0.1 M citric acid and 0.2 M dibasic sodium phosphate dodecahydrate in the proportions indicated in the Table 2 and the volume adjusted to 90 ml with dH2O.
# pH buffered medium was prepared by dissolving 1.04 g RPMI-1640 premix powder in 10 ml citrate phosphate buffer. The volume was then adjusted to 40 ml with dH2O and the pH adjusted by addition of the acid or base. The volume was adjusted to 50 ml with dH2O. The medium was then filter sterilized by vacuum filtration through a 0.2 μm filter and stored at 4° C. and kept for up to 2 weeks.
# The pH of RPMI-1640 was altered, using citrate phosphate buffer, to reflect the more acidic pH environment in the oral cavity. NP319 and NP377 were active against C. albicans SC5314 from pH 5.5-7.0 (Table 2). For all AMPs tested the optimum pH for activity was pH 5.5. NP377 maintained activity at 2 μg/ml from pH 5.5-7 with reduced activity at pH 5.
# [9] = neutral pH, no saliva, 24 h incubation at 37° C.
molecule,measurement,setting,value
"CCCC(=O)O [Butanoic (C4), Butanoic]",% Growth Inhibition of A. fumigatus at 48 h,"[1]; lipid alone at 200 μg/ml, 48 h",35%
same,% A549 Cell Death at 3 h,A549 cells,0%
same,% Haemolytic Activity at 3 h,[2],30%
CCC(C)n1ncn(-c2ccc(N3CCN(c4ccc(OCC5COC(Cn6cncn6)(c6ccc(Cl)cc6Cl)O5)cc4)CC3)cc2)c1=O (stereo not shown) [Itraconcazole],A. flavus MIC100,[3],1 mg/L
same,A. fumigatus MIC100,[1],<1 mg/L
same,A. niger MIC100,[4],<1 mg/L
OC(Cn1cncn1)(Cn1cncn1)c1ccc(F)cc1F [Fluconazole],MIC,[3],64 mg/L
same,MIC,[1]; Aspergillus fumigatus,64 mg/L
same,MIC,[4],64 mg/L
"CCCCCC(=O)O [Hexanoic (C6), Hexanoic]",% Growth Inhibition of A. fumigatus at 48 h,"[1]; lipid alone at 200 μg/ml, 48 h",50%
same,% A549 Cell Death at 3 h,A549 cells,0%
same,% Haemolytic Activity at 3 h,[2],40%
CC[C@H](C)C[C@H](C)CCCCCCCCC(=O)N[C@H]1C[C@@H](O)[C@@H](NCCN)NC(=O)[C@@H]2[C@@H](O)CCN2C(=O)[C@H]([C@H](O)CCN)NC(=O)[C@H]([C@H](O)[C@@H](O)c2ccc(O)cc2)NC(=O)[C@@H]2C[C@@H](O)CN2C(=O)[C@H]([C@@H](C)O)NC1=O [Caspofungin],MIC,[3],128 mg/L
same,MIC,[1]; Aspergillus fumigatus,64 mg/L
same,MIC,[4],16 mg/L
"CC(=O)O [Acetic (C2), Acetic]",inhibition at 200 µg/mL,"[1]; Aspergillus fumigatus, lipid alone at 200 μg/ml, 48 h, read-out: % Growth Inhibition of A. fumigatus at 48 h",5%
RRRFRFRFRFRRR [NP466],MIC90,"C. albicans SC5314 [5]; SC5314, 24 h",32 mg/L
same,MIC100,C. albicans SC5314 [5]; [9],did not achieve a MIC100
dHdHdRdRdRdRdRdRdRdRdRdRdRdRdR-CONH [NP376],MIC100,C. albicans SC5314 [5]; [9],2 mg/L
"CCCCCCCCCC(=O)O [Decanoic (C10), Decanoic]",% Growth Inhibition of A. fumigatus at 48 h,"[1]; lipid alone at 200 μg/ml, 48 h",20%
same,% A549 Cell Death at 3 h,A549 cells,25%
same,% Haemolytic Activity at 3 h,[2],10%
"CCCCCCCCCCCC(=O)O [Dodecanoic (C12), Dodecanoic]",% Growth Inhibition of A. fumigatus at 48 h,"[1]; lipid alone at 200 μg/ml, 48 h",45%
same,% A549 Cell Death at 3 h,A549 cells,20%
same,% Haemolytic Activity at 3 h,[2],20%
"CCCCCCCC(=O)O [Octanoic (C8), Octanoic]",% Growth Inhibition of A. fumigatus at 48 h,"[1]; lipid alone at 200 μg/ml, 48 h",60%
same,% A549 Cell Death at 3 h,A549 cells,5%
"Poly-L-Arg, HCl salt [NP121]",MIC80,C. albicans SC5314 [5]; [9],64 mg/L
N=C(N)NCCC[C@H](NC(=O)[C@H](CCCNC(=N)N)NC(=O)[C@H](CCCNC(=N)N)NC(=O)[C@H](CCCNC(=N)N)NC(=O)[C@H](CCCNC(=N)N)NC(=O)[C@H](CCCNC(=N)N)NC(=O)[C@H](CCCNC(=N)N)NC(=O)[C@H](CCCNC(=N)N)NC(=O)[C@H](CCCNC(=N)N)NC(=O)[C@H](CCCNC(=N)N)NC(=O)[C@H](CCCNC(=N)N)NC(=O)[C@H](CCCNC(=N)N)NC(=O)[C@H](CCCNC(=N)N)NC(=O)[C@@H](N)CCCNC(=N)N)C(=O)O [Novamycin],MIC50,C. albicans SC5314 [6],<2 mg/L
same,MIC80,C. albicans SC5314 [6],2 mg/L
same,MIC100,C. albicans SC5314 [6],4 mg/L
same,MIC50,C. albicans SC5314 [7],78.1 mg/L
same,MIC80,C. albicans SC5314 [7],156.25 to 312.5 mg/L
same,MIC100,C. albicans SC5314 [7],312.5 mg/L
"CCCCCCCCCCCCCC(=O)O [Tetradecanoic (C14), Tetradecanoic]",% Growth Inhibition of A. fumigatus at 48 h,"[1]; lipid alone at 200 μg/ml, 48 h",15%
same,% A549 Cell Death at 3 h,A549 cells,0%
same,% Haemolytic Activity at 3 h,[2],20%
C[C@@H]1[C@H](O)[C@@H](C)/C=C/C=C/C=C/C=C/C=C/C=C/C=C/[C@H](O[C@@H]2O[C@H](C)[C@@H](O)[C@H](N)[C@@H]2O)C[C@@H]2O[C@](O)(C[C@@H](O)C[C@@H](O)[C@H](O)CC[C@@H](O)C[C@@H](O)CC(=O)O[C@H]1C)C[C@H](O)[C@H]2C(=O)O [Amphotericin B],A. flavus MIC100,[3],1.5 mg/L
same,A. fumigatus MIC100,[1],1 mg/L
same,A. niger MIC100,[4],<1 mg/L
"CCCCCCCCCCCCCCCC(=O)O [Palmitic (C16), Palmitic]",% Growth Inhibition of A. fumigatus at 48 h,"[1]; lipid alone at 200 μg/ml, 48 h",0%
same,% A549 Cell Death at 3 h,A549 cells,10%
Palm-dRdRdRdRdRdRdRdRdRdRdRdR-CONH [NP375],MIC100,C. albicans SC5314 [5]; [9],16 mg/L
C[C@@H]1[C@H](O)[C@@H](C)/C=C/C=C/CC/C=C/C=C/C=C/C=C/C(O[C@H]2O[C@H](C)[C@@H](O)[C@H](N)[C@@H]2O)CC2O[C@](O)(CC(O)C(O)CCC(O)CC(O)CC(O)CC(=O)O[C@H]1C)CC(O)C2C(=O)O (stereo partly shown) [Nystatin],MIC50,C. albicans SC5314 [8]; pH 4.5,2 mg/L
same,MIC100,C. albicans SC5314 [8]; pH 4.5,2 mg/L
same,MIC50,C. albicans SC5314 [8]; pH 5,1 mg/L
same,MIC100,C. albicans SC5314 [8]; pH 5,1 mg/L
same,MIC50,C. albicans SC5314 [8]; pH 5.5,1 mg/L
same,MIC100,C. albicans SC5314 [8]; pH 5.5,1 mg/L
same,MIC50,C. albicans SC5314 [8]; pH 6,1 mg/L
same,MIC100,C. albicans SC5314 [8]; pH 6,1 mg/L
same,MIC50,C. albicans SC5314 [8]; pH 6.5,1 mg/L
same,MIC100,C. albicans SC5314 [8]; pH 6.5,1 mg/L
same,MIC50,C. albicans SC5314 [8]; pH 7,1 mg/L
same,MIC100,C. albicans SC5314 [8]; pH 7,1 mg/L
